# Target: T1, HIV-1 protease wild type protein (Human immunodeficiency virus type 1 group M subtype B, UniProt P04585)
# T1 construct: HIV-1 protease wild type protein; purchased AscoProt Biotech, Prague, Czech Republic
# Assay: Biochemical protease assay
# Method: For the determination of their in vitro activity on HIV proteases the test substances are dissolved in DMSO and serially diluted. In each case 0.5 μl of substance dilution, 20 μl of 0.2-1 nM HIV-1 protease wild type or mutant protein (e.g., multiresistant isolate “35513”: L10I, I15V, L19I, K20R, E35D, M36I, R41K, I54V, L63P, H69K, A71V, T74P, I84V, L89M, L90M, 193L, AscoProt Biotech, Prague, Czech Republic) in buffer 1 (50 mM sodium acetate pH 4.9, 0.02% BSA, 0.1 mM EDTA, 0.5 mM DTT) and 20 μl of 8 μM substrate (M1865 from Bachem, Bubendorf, Switzerland; Matayoshi et al., Science 1990, 247, 954-8) in buffer 1 are added successively to a 384 well microtiter plate (Greiner, Frickenhausen, Germany), incubated for 60-180 minutes at 32° C. and the fluorescence is measured (e.g., Tecan Safire, 340 nm extinction, 520 nm emission). IC50 values are determined by graphical plotting the substance concentration against the percentage inhibition.
row,Compound,IC50
1,"CCOC1CCCCC12OC(=O)C(c1cc(Cl)c(-c3cccc(S(C)(=O)=O)c3)cc1C)=C2O (single isomer, unassigned) [Example 75]",≤ 100 nM
2,"CCOC1CCCCC12OC(=O)C(c1cc(Cl)c(-c3ccccc3)cc1C)=C2O (single isomer, unassigned) [Example 77]",≤ 100 nM
3,"CCOC1CCCCC12OC(=O)C(c1cc(C)c(-c3ccc(Cl)cc3)cc1Cl)=C2O (single isomer, unassigned) [Example 82]",≤ 100 nM
4,"Cc1cc(-c2cccc(S(C)(=O)=O)c2)c(Cl)cc1C1=C(O)C2(CCCN(CC(=O)NCc3ccccc3)C2)OC1=O (single isomer, unassigned) [Example 164]",≤ 100 nM
5,Cc1cc(-c2ccc(Cl)cc2)c(C)cc1C1=C(O)C2(CCC(C)C(C)C2)OC1=O (centres unmarked) [Example 9],≤ 100 nM
6,Cc1cc(-c2ccc(Cl)cc2)c(C)cc1C1=C(O)C2(CCCCCC2)OC1=O [Example 10],≤ 100 nM
7,Cc1cc(-c2ccc(Cl)cc2)c(C)cc1C1=C(O)C2(CCC(=O)CC2)OC1=O [Example 11],≤ 100 nM
8,Cc1cc(-c2ccc(Cl)cc2)c(C)cc1C1=C(O)C2(CCC3CCCC3C2)OC1=O (centres unmarked) [Example 12],≤ 100 nM
9,Cc1cc(-c2ccc(Cl)cc2)c(C)cc1C1=C(O)C2(CCCCC2OC(C)C)OC1=O (centres unmarked) [Example 13],≤ 100 nM
10,CCOC1CCCCC12OC(=O)C(c1cc(C)c(-c3ccc(Cl)cc3)cc1C)=C2O (centres unmarked) [Example 14],≤ 100 nM
11,COC1CCCCC12OC(=O)C(c1cc(C)c(-c3ccc(Cl)cc3)cc1C)=C2O (centres unmarked) [Example 15],≤ 100 nM
12,"Cc1cc(-c2ccccc2)c(Cl)cc1C1=C(O)C2(CCCCC2)OC1=O [Example 17, 3-(2-Chloro-5-methylbiphenyl-4-yl)-4-hydroxy-1-oxaspiro[4.5]dec-3-en-2-one]",≤ 100 nM
13,Cc1ccc(-c2cc(C)c(C3=C(O)C4(CCCCC4)OC3=O)cc2Cl)cc1 [Example 22],≤ 100 nM
14,COc1ccc(-c2cc(C)c(C3=C(O)C4(CCCCC4)OC3=O)cc2Cl)cc1 [Example 23],≤ 100 nM
15,Cc1cc(-c2ccc3c(c2)OCO3)c(Cl)cc1C1=C(O)C2(CCCCC2)OC1=O [Example 24],≤ 100 nM
16,Cc1cc(-c2cccc(CO)c2)c(Cl)cc1C1=C(O)C2(CCCCC2)OC1=O [Example 26],≤ 100 nM
17,CC(=O)c1cccc(-c2cc(C)c(C3=C(O)C4(CCCCC4)OC3=O)cc2Cl)c1 [Example 27],≤ 100 nM
18,Cc1cc(-c2ccc(C(=O)O)cc2)c(Cl)cc1C1=C(O)C2(CCCCC2)OC1=O [Example 30],≤ 100 nM
19,Cc1cc(-c2cccc(Cl)c2)c(Cl)cc1C1=C(O)C2(CCCCC2)OC1=O [Example 31],≤ 100 nM
20,COc1cccc(-c2cc(C)c(C3=C(O)C4(CCCCC4)OC3=O)cc2Cl)c1 [Example 32],≤ 100 nM
21,Cc1cc(-c2cccc(C)c2C)c(Cl)cc1C1=C(O)C2(CCCCC2)OC1=O [Example 33],≤ 100 nM
22,Cc1cc(-c2cc(C)c(C3=C(O)C4(CCCCC4)OC3=O)cc2Cl)ccc1F [Example 34],≤ 100 nM
23,Cc1cc(-c2ccc(OC(F)(F)F)cc2)c(Cl)cc1C1=C(O)C2(CCCCC2)OC1=O [Example 35],≤ 100 nM
24,Cc1cc(-c2cccc(S(C)(=O)=O)c2)c(Cl)cc1C1=C(O)C2(CCCCC2)OC1=O [Example 36],≤ 100 nM
25,Cc1cc(-c2cccc(C#N)c2)c(Cl)cc1C1=C(O)C2(CCCCC2)OC1=O [Example 37],≤ 100 nM
26,Cc1cc(-c2cccc(OC(F)(F)F)c2)c(Cl)cc1C1=C(O)C2(CCCCC2)OC1=O [Example 38],≤ 100 nM
27,Cc1cc(-c2cccc([N+](=O)[O-])c2)c(Cl)cc1C1=C(O)C2(CCCCC2)OC1=O [Example 40],≤ 100 nM

row,Compound,IC50
1,Cc1cc(-c2cccc(C(N)=O)c2)c(Cl)cc1C1=C(O)C2(CCCCC2)OC1=O [Example 41],≤ 100 nM
2,CCS(=O)(=O)c1ccc(-c2cc(C)c(C3=C(O)C4(CCCCC4)OC3=O)cc2Cl)cc1 [Example 42],≤ 100 nM
3,Cc1cc(-c2ccc(NC(=O)OC(C)(C)C)cc2)c(Cl)cc1C1=C(O)C2(CCCCC2)OC1=O [Example 43],≤ 100 nM
4,Cc1cc(-c2ccc(NC(=O)C(C)(C)C)cc2)c(Cl)cc1C1=C(O)C2(CCCCC2)OC1=O [Example 44],≤ 100 nM
5,"Cc1cc(-c2ccc([N+](=O)[O-])cc2)c(Cl)cc1C1=C(O)C2(CCCCC2)OC1=O [Example 47, 3-(2-chloro-5-methyl-4′-nitrobiphenyl-4-yl)-4-hydroxy-1-oxaspiro[4.5]dec-3-en-2-one]",≤ 100 nM
6,Cc1cc(-c2ccc(F)c([N+](=O)[O-])c2)c(Cl)cc1C1=C(O)C2(CCCCC2)OC1=O [Example 48],≤ 100 nM
7,Cc1cc(-c2ccc(C(=O)NC3CC3)cc2)c(Cl)cc1C1=C(O)C2(CCCCC2)OC1=O [Example 49],≤ 100 nM
8,Cc1cc(-c2cccc(C(=O)NC3CC3)c2)c(Cl)cc1C1=C(O)C2(CCCCC2)OC1=O [Example 50],≤ 100 nM
9,Cc1cc(-c2cccc(C(=O)NCCC#N)c2)c(Cl)cc1C1=C(O)C2(CCCCC2)OC1=O [Example 51],≤ 100 nM
10,Cc1cc(-c2ccc(C(=O)NCC(=O)O)cc2)c(Cl)cc1C1=C(O)C2(CCCCC2)OC1=O [Example 52],≤ 100 nM
11,COC1CCC2(CC1)OC(=O)C(c1cc(Cl)c(-c3ccccc3)cc1C)=C2O (centres unmarked) [Example 53],≤ 100 nM
12,COC1CCC2(CC1)OC(=O)C(c1cc(Cl)c(-c3ccc(F)cc3)cc1C)=C2O (centres unmarked) [Example 54],≤ 100 nM
13,CCOc1ccccc1-c1cc(C)c(C2=C(O)C3(CCC(OC)CC3)OC2=O)cc1Cl (centres unmarked) [Example 55],≤ 100 nM
14,COC1CCC2(CC1)OC(=O)C(c1cc(C)c(-c3cccc(C#N)c3)cc1C)=C2O (centres unmarked) [Example 56],≤ 100 nM
15,COC1CCC2(CC1)OC(=O)C(c1cc(C)c(-c3cccc(C(F)(F)F)c3)cc1C)=C2O (centres unmarked) [Example 57],≤ 100 nM
16,COC1CCC2(CC1)OC(=O)C(c1cc(C)c(-c3ccc(Cl)cc3)cc1C)=C2O (centres unmarked) [Example 58],≤ 100 nM
17,Cc1cc(-c2ccccc2)ccc1C1=C(O)C2(CCCCC2)OC1=O [Example 59],≤ 100 nM
18,COc1cccc(-c2ccc(C3=C(O)C4(CCCCC4)OC3=O)c(C)c2)c1 [Example 60],≤ 100 nM
19,Cc1cc(-c2ccc(Cl)cc2)ccc1C1=C(O)C2(CCCCC2)OC1=O [Example 61],≤ 100 nM
20,COc1ccc(-c2ccc(C3=C(O)C4(CCCCC4)OC3=O)c(C)c2)cc1 [Example 62],≤ 100 nM
21,COc1cccc(-c2cc(Cl)c(C3=C(O)C4(CCCCC4)OC3=O)cc2C)c1 [Example 69],≤ 100 nM
22,Cc1cc(C2=C(O)C3(CCCCC3)OC2=O)c(Cl)cc1-c1ccc(Cl)cc1 [Example 70],≤ 100 nM
23,Cc1cc(C2=C(O)C3(CCCCC3)OC2=O)c(Cl)cc1-c1cccc(S(C)(=O)=O)c1 [Example 71],≤ 100 nM
24,"Cc1cc(-c2cccc(S(C)(=O)=O)c2)c(Cl)cc1C1=C(O)C2(CCN(C(=O)OCc3ccccc3)CC2)OC1=O [Example 72, benzyl 3-[2-chloro-5-methyl-3′-(methylsulfonyl)biphenyl-4-yl]-4-hydroxy-2-oxo-1-oxa-8-azaspiro[4.5]dec-3-ene-8-carboxylate]",≤ 100 nM
25,Cc1cc(-c2cccc(S(C)(=O)=O)c2)c(Cl)cc1C1=C(O)C2(CCC3CCCC3C2)OC1=O (centres unmarked) [Example 84],≤ 100 nM
26,Cc1cc(-c2cccc([N+](=O)[O-])c2)c(Cl)cc1C1=C(O)C2(CCC3CCCC3C2)OC1=O (centres unmarked) [Example 88],≤ 100 nM

# From patent US20100022527A1, “BIPHENYL SUBSTITUTED SPIROTETRONIC ACIDS AND THEIR USE FOR THE TREATMENT OF RETROVIRAL DISEASES” (priority 2006, published 2010)
